Reference: US20140341922A1, “Method for Overcoming Tolerance to Targeted Anti-Cancer Agent” (SUN R&DB Foundation, priority 2011, published 2014)

What was measured:
[1] = test system: LN686, FADU, H226B, OSC19, and UMSCC38 cells; assay: MTS cell proliferation, combined treatment in PCPs; format: cell-based, human; settings: 7 days
Description: Cells were cultured in 96-well poly(poly-2-hydroxyethyl methacrylate [HEMA])-coated plates (PCPs) or ultra-low attached plates (UAPs). Control IgG1 (25 μg/ml), cixutumumab (25 μg/ml), PP2 (10 μM), and an integrin β3 neutralizing antibody B3A (10 μg/ml) were diluted in culture media containing 10% FBS or IGF-1 and treated alone or in combination. To examine the effect on cancer cell proliferation, a 3-(4,5-dimethylthiazol-2-yl)-2,5-diphenyltetrazolium bromide (MTT) or 3-(4,5-dimethylthiazol-2-yl)-5-(3-carboxymethoxyphenyl)-2-(4-sulfophenyl)-2H-tetrazolium (MTS) assay was performed, and to evaluate the effect on anchorage-independent colony formation, a soft agar colony formation assay was performed according to a method in our previous report (Morgillo et al., 2006).
In addition, the LN686, FADU, H226B, OSC19, and UMSCC38 cells grown in PCPs were untreated or treated with cixutumumab (25 μg/ml), anti-integrin β3 mAb (αβ3, 10 μg/ml), PP2 (10 μM), or a combination thereof for 7 days. Each bar represents the mean±SD of 6 wells treated with the same sample in one representative experiment.

[2] = test system: integrin β3/Src signaling; assay: Western blot after integrin β3 or Src blockade; format: cell-based, human; set-up: p-EGFR, p-Src, and p-Akt levels: dose or concentration left out as unconfirmed
Description: Specifically, cixutumumab-resistant cells (LN686 and FADU) and cixutumumab-sensitive cells (OSC19) grown in PCPs were treated with B3A […] or PP2 […] for 1 hour prior to activation with IGF-1 (100 ng/ml).
In addition, the LN686 and FADU cells grown in the PCPs were untreated or treated with cixutumumab ([…]), PP2 (10 μM), an anti-integrin β1 monoclonal antibody (A11B2, 10 μg/ml), Ad-EV or Ad-CSK (10 pfu/cell) for 7 days prior to stimulation with IGF-1 (100 ng/ml, 30 min), and to detect the proteins, western blot analysis was performed.

In the case of CC(C)(C)n1nc(-c2ccc(Cl)cc2)c2c(N)ncnc21 [PP2], the “antiproliferative activities of cixutumumab on combined treatment” value ([1]; cixutumumab-resistant cells (LN686, FADU, H226B)) is reported as “significantly augmented”, the “antiproliferative activities of cixutumumab on combined treatment” value ([1]; cixutumumab-sensitive cells (OSC19 and UMSCC38)) is reported as “not” and the “p-EGFR, p-Src, and p-Akt levels” value ([2]; LN686, FADU and OSC19, 6 h) is reported as “marked decreases”. The “cixutumumab-induced increases in p-Src, p-FAK, p-EGFR, p-Akt, and p-mTOR” value ([2]; LN686 or FaDu cells, integrin β3 mAb 100 μg/ml or PP2 10 μM) was “almost completely blocked”.
